Laboratory results taken from patent US20120270900A1, “NOVEL METHOD OF TREATMENT” (Topo Target A/S, priority 2009, published 2012).

Legend:
[1] = APO866 40 mg/kg i.p. x2/day for 4 days, nicotinic acid 20 mg/kg x1/day p.o. for five days; last treatment day
[2] = test system: panel of cell lines of different origin; test: Clonogenic assay, continuous APO866 treatment, panel of cell lines; type: cell-based
Description: (§1) Clonogenic assay: Cells were incubated with APO866 at different concentrations with or without 100 μM nicotinic acid and seeded out on semi-solid agar matrix with sheep red blood cells and growth medium. Following a 3-week incubation period, the colonies were counted and % survival relative to control (untreated) cells was calculated. IC50 values were calculated on basis of survival at different concentrations of APO866.
Supplement of nicotinic acid to the growth medium can protect against the cytotoxic effects of inhibitors of nicotinamide phosphoribosyltransferase (NAMPRT), including APO866, by synthesizing nicotine adenine dinucleotide (NAD) by an alternative pathway. A cancer cell line, HEPG2, has been shown not to be able to utilize nicotinic acid for NAD synthesis (Cancer Res. 2003 Nov. 1; 63(21):7436-42). We investigated the protective effect of nicotinic acid against APO866 induced cell death in a panel of cell lines of different origin. […] We used continuous treatment with APO866 in a clonogenic assay. Two cell lines, A2780 and NYH were not protected against APO866 when incubated in a medium containing 100 μM nicotinic acid (Table 1). ML-2, HCT-116 and A431 cells display an increase of IC50 values of more than 40-90 fold in nicotinic acid containing medium compared to standard medium. […]

[3] = Survival of mice under high dose APO866 with or without oral nicotinic acid; type: in vivo
Description: FIG. 2 illustrates the cumulative survival of mice in response to high dose APO866 treatment. Treatment is 60 mg APO866 twice/day for 4 days. NA=nicotinic acid.

[4] = test system: ovarian cancer cell line A2780; test: CellTiterGlo luminescent cell viability assay; type: cell-based; conditions: 3 days treatment, 1 mM nicotinic acid
Description: FIG. 7 illustrates cell viability in the ovarian cancer cell line A2780 measured by CellTiterGlo® after 3 days of CHS-828 treatment with and without 1 mM nicotinic acid added to the medium.
(§2) CellTiterGlo® luminescent cell viability assay: Cells were plated in opaque 96-well plates (5,000 cells/well) 24 hours before use and then incubated with drug for 72 hours at the indicated concentrations with or without nicotinic acid (Invitrogen) added to the media. The CellTiterGlo® assay (Promega) was performed according to the manufacturer's instructions and bioluminescence was measured. Analysis and determination of IC50 values were performed by Prizm.

[5] = test system: small cell lung cancer cell line NYH; test: CellTiterGlo luminescent cell viability assay; type: cell-based; conditions: 3 days treatment, 1 mM nicotinic acid
Description: FIG. 9 illustrates cell viability in the small cell lung cancer cell line NYH measured by CellTiterGlo® after 3 days of compound 1050 treatment with and without 1 mM nicotinic acid added to the medium.
as §2

[6] = test system: colon cancer cell line HCT116; test: CellTiterGlo luminescent cell viability assay; type: cell-based; conditions: 3 days treatment, varying concentrations of nicotinic acid
Description: FIG. 8 illustrates cell viability in the colon cancer cell line HCT116 measured by CellTiterGlo® after 3 days of compound 1050 treatment with and without varying concentrations of nicotinic acid added to the medium.
as §2

ML-2 xenografts = test: Subcutaneous ML-2 xenograft study
Description: (§3) FIG. 5 illustrates the cumulative survival of mice with subcutaneous ML-2 xenografts: Time used for each individual mouse's tumour to reach a size of 800 mm3. The mice were treated i.p. with doses of 15 or 50 mg/kg APO866×2/day in two weekly 4-day cycles combined with vehicle p.o. or 50 mg/kg nicotinic acid (NA). Legend on the figure: The p-values of log-rank analysis comparing the individual groups are shown on the figure.
(§4) Mouse studies: In toxicity and xenograft studies NMRI mice and nude mice, respectively, were treated once daily p.o. with 0.5% HPMC in water or nicotinic acid in the same vehicle combined with two daily injections of APO866 in PBS/saline with 3% HPβCD. The mice were treated in two weekly four-day cycles.
(§5) In xenograft studies, 10^7 cancer cells were injected s.c. in a mixture of PBS/matrigel in nude athymic mice.
(§6) We investigated the in vivo rescue effects of nicotinic acid on nude mice carrying xenograft tumours of A2780 and ML-2 cells. APO866 was given twice daily in weekly four-day cycles for two weeks starting when tumours had reached a size of 100 mm^3.

PC-3 cells = test: LD50 of APO866 in PC-3 cells with and without nicotinic acid; type: cell-based
NAPRT = biological target: T1, NAPRT (Homo sapiens, UniProt Q6XQN6); conditions: cited from earlier work
T1 sequence (Q6XQN6 1-538): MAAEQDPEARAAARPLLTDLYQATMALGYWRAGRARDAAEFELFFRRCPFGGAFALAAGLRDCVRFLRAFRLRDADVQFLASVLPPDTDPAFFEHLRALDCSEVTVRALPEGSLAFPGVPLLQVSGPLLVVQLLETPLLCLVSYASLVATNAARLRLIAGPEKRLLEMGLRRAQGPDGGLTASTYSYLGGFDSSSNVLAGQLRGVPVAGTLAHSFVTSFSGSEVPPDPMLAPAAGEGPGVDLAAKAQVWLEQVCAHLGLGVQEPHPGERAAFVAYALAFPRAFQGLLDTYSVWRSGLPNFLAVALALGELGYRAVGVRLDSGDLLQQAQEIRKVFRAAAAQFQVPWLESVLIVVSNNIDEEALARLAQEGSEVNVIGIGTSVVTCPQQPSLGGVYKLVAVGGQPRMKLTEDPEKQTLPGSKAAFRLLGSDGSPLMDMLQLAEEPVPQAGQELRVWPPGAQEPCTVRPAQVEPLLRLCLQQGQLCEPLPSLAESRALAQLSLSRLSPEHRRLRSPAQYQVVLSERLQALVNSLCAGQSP

primary intestinal cells = conditions: cited from earlier work
primary lymphocytes = conditions: cited from earlier work
[7] = Maximally tolerated dose of APO866 in mice; conditions: mouse, in vivo, intraperitoneal; twice a day; Balb/c nude mice; data not shown
leukemic cells = conditions: WO 1999/053920; cited from earlier work
A2780 xenografts = test: Subcutaneous A2780 xenograft study
Description: as §3, with “FIG. 4” for “FIG. 5”, “subcutaneous A2780” for “subcutaneous ML-2”
as §4, §5, §6

HCT-116 = test: Clonogenic assay, APO866 with or without 100 μM nicotinic acid; type: cell-based
Description: as §1
(§7) Supplement of nicotinic acid to the growth medium can protect against the cytotoxic effects of inhibitors of nicotinamide phosphoribosyltransferase (NAMPRT), including APO866, by synthesizing nicotine adenine dinucleotide (NAD) by an alternative pathway. A cancer cell line, HEPG2, has been shown not to be able to utilize nicotinic acid for NAD synthesis (Cancer Res. 2003 Nov. 1; 63(21):7436-42). We investigated the protective effect of nicotinic acid against APO866 induced cell death in a panel of cell lines of different origin. […] We used continuous treatment with APO866 in a clonogenic assay. Two cell lines, A2780 and NYH were not protected against APO866 when incubated in a medium containing 100 μM nicotinic acid (Table 1). ML-2, HCT-116 and A431 cells display an increase of IC50 values of more than 40-90 fold in nicotinic acid containing medium compared to standard medium. Addition of 100 μM nicotinic acid to the medium had in itself no effect on the survival of the cells (data not shown)

A2780 = test: as above; type: cell-based
Description: as §1, §7

A431 = test: as above; type: cell-based
Description: as §1, §7

ML-2 = test: as above; type: cell-based
Description: as §1, §7

NYH = test: as above; type: cell-based
Description: as §1, §7

myeloma = conditions: unless nicotinic acid is given 24 hours after the NAMPRTi; Beauparlant et al.; cited from earlier work
[8] = 60 mg/kg APO866 twice daily on four consecutive days, vehicle p.o. (no nicotinic acid)
[9] = increase of IC50 to APO866 with 100 μM nicotinic acid in medium

## O=C(O)c1cccnc1 [nicotinic acid]
[1]
  platelet count upon APO866 treatment, nicotinic acid group compared to control: significantly improved
[2]; 100 μM nicotinic acid added to the medium, data not shown
  effect of nicotinic acid in itself on the survival of the cells: no effect
[3]; nicotinic acid administered on the same days as APO866
  protection against APO866-induced death: protects against death even at four times the normal MTD

## N#CN=C(NCCCCCCOc1ccc(Cl)cc1)Nc1ccncc1 [CHS828]
[4]
  rescue by nicotinic acid from cytotoxicity: minimally rescued

## N#C/N=C(\NCCCCCCC(=O)N(Cc1ccccc1)OC1CCCCC1)Nc1ccncc1 [Compound 1050]
[5]
  rescue by nicotinic acid from treatment: not similarly protected
[6]
  rescue by nicotinic acid from treatment: can rescue

## O=C(/C=C/c1cccnc1)NCCCCC1CCN(C(=O)c2ccccc2)CC1 [APO866]
ML-2 xenografts; 15 mg/kg APO866 and nicotinic acid, p=0.14
  survival compared with controls: not significantly different from controls
ML-2 xenografts; 50 mg/kg APO866 and nicotinic acid, p=0.002
  tumour growth compared with untreated controls: reduced tumour growth
ML-2 xenografts; 50 mg/kg APO866 combined with nicotinic acid, p=0.97
  effect on tumour size compared with 15 mg/kg APO866 and nicotinic acid: does not improve the effect on tumour size in a significant way
ML-2 xenografts; APO866 only
  effect on tumours: complete elimination of the tumours before day 10
ML-2 xenografts; data not shown
  body weight change between the groups: No overall differences in body weight change
ML-2 xenografts; same APO866 dose with nicotinic acid
  anti-proliferative effect with nicotinic acid co-administered: partially negated
PC-3 cells; with nicotinic acid (100 μM) present
  LD50: 5.5 ± 1.4 nM
PC-3 cells; without nicotinic acid
  LD50: 4.8 ± 3.0 nM
NAPRT
  inhibition of the enzyme NAPRT: not inhibited
[2]; range over the cell lines of the panel, continuous treatment
  IC50: 1 to 13 nM
Primary intestinal cells
  effect of vitamin PP compounds on cytotoxic effect: neutralise the cytotoxic effect
Primary lymphocytes
  effect of vitamin PP compounds on cytotoxic effect: neutralise the cytotoxic effect
[7]
  MTD: 15 mg/kg
Leukemic cells
  effect of vitamin PP compounds on cytotoxicity: neutralise the cytotoxicity
[3]; 60 mg/kg APO866 twice daily on four consecutive days combined with 50 mg/kg/day nicotinic acid p.o., until day 26
  survival of mice: all the mice of the group treated with nicotinic acid survived
[3]; [8]
  death of mice: the majority of the control mice died on day 3 and 4
  mice that survive the initial toxicity and recover: 1 of 7
A2780 xenografts; 15 mg/kg APO866 i.p. twice daily, weekly four-day cycles for two weeks
  increase of lifespan (% ILS, until tumour size of 800 mm3) compared to the control group: 50%
A2780 xenografts; 15 mg/kg APO866 with 50 mg/kg nicotinic acid
  anti-proliferative effect with nicotinic acid co-treatment: negates the anti-proliferative effect
A2780 xenografts; 50 mg/kg APO866 i.p. and 50 mg/kg nicotinic acid p.o.
  increase in % ILS: 180%
A2780 xenografts; during the study, data not shown
  body weight between the groups: did not vary significantly
HCT-116; 100 μM nicotinic acid
  increase of IC50 values in nicotinic acid containing medium compared to standard medium: 40-90 fold
HCT-116; [9]
  NA rescue effect: + (Rescue effect defined as >39-fold increase of IC50 to APO866 treatment)
A2780; 100 μM nicotinic acid
  protection against APO866 in medium containing nicotinic acid: not protected
A2780; [9]
  NA rescue effect: − (No rescue effect defined as <2-fold increase in IC50)
A431; 100 μM nicotinic acid
  increase of IC50 values in nicotinic acid containing medium compared to standard medium: 40-90 fold
A431; [9]
  NA rescue effect: + (Rescue effect defined as >39-fold increase of IC50 to APO866 treatment)
ML-2; 100 μM nicotinic acid
  increase of IC50 values in nicotinic acid containing medium compared to standard medium: 40-90 fold
ML-2; [9]
  NA rescue effect: + (Rescue effect defined as >39-fold increase of IC50 to APO866 treatment)
NYH; 100 μM nicotinic acid
  protection against APO866 in medium containing nicotinic acid: not protected
NYH; [9]
  NA rescue effect: − (No rescue effect defined as <2-fold increase in IC50)

## COCCOCCOCCOCCOC(=O)OC[n+]1ccc(N/C(=N/C#N)NCCCCCCOc2ccc(Cl)cc2)cc1.[Cl-] [GMX1777]
myeloma
  effect of nicotinic acid on antitumour effect: abrogates the antitumour effect
